Data: patent US20250057890A1, “FUNCTIONAL FOOD CONTAINING BONITO-DERIVED EXTRACT FOR PREVENTING OR AMELIORATING NEUROPSYCHIATRIC DISORDERS” (MARUHACHI MURAMATSU, INC., priority 2022, published 2025)

Experiments:
[1] = tested on: MG6 cells from mouse brain microglia; experiment: Anti-inflammatory action: TNF-α production in LPS-activated MG6 cells (ELISA); type: cell-based; settings: for anti-inflammatory activity: MG6 cells, LPS, fractions or single components; for anti-inflammatory action compared to katsuobushi extract: known components of katsuobushi, each in isolation
Experimental: MG6 cells from mouse brain microglia were purchased from the RIKEN BioResource Research Center (BRC), and the anti-inflammatory action of various extracts, including from katsuobushi, were assayed (see FIG. 1). First, a 96-well plate was seeded with the MG6 cells (5×10^3 cells/well·90 μL), and a culture was started in a CO2 incubator (37° C., CO2 level 5%). Next the various extracts were added to the wells after 0.5 hours, followed by the addition of lipopolysaccharide (LPS) 1 hour after that to activate the MG6 cells and induce an inflammatory state. After 6 hours, 10 μL of culture supernatant was collected from each well, after which 10 μL of a viable cell counting reagent (WST-8) was added to each well, and absorbance at 450 nm (reference wavelength 630 nm) was measured with a plate reader after 1 hour and 2 hours.
The previously collected culture supernatant was diluted 25-fold with a buffer, and the levels of TNF-α, a type of inflammatory cytokine, produced in the culture supernatant was measured via ELISA (using ELISA MAX™ Deluxe Set Mouth TNF-α, a kit manufactured by BioLegend). In the LPS addition test section, anti-inflammatory action was determined to be higher when the TNF-α production levels were more reduced through the prior addition of the various extracts, and lower the less said levels were reduced.

[2] = tested on: rat brain capillary endothelial cells (RBECs, primary cells); experiment: Protein expression of tight-junction-associated molecules (claudin-5 and occludin) in RBECs, western blot; type: cell-based
Experimental: First, a 48-well plate was seeded with the RBECs (2×10^5 cells/well·440 μL), and a culture was started in a CO2 incubator (37° C., CO2 level 5%). Next, after 72 hours, the medium in each well was replaced with an evaluation medium prepared by adding the various extracts, and, 24 hours and 72 hours after that, RNA and protein were recovered from the cultured cells a NucleoSpin RNA/Protein kit (Takara Bio) according to the protocol of the kit. The extracted protein was evaluated via western blot, and DNA obtained by reverse transcription of the extracted RNA was evaluated via real-time PCR.
(§1) First, a 48-well plate was seeded with the RBECs (2×10^5 cells/well·440 μL), and a culture was started in a CO2 incubator (37° C., CO2 level 5%). […] The extracted protein was evaluated via western blot, and DNA obtained by reverse transcription of the extracted RNA was evaluated via real-time PCR (real-time PCR data not shown here).
as §1

[3] = tested on: microglia in the hippocampus; settings: Liang et al., International Journal of Neuroscience, 2022; cited from earlier work

Row | Compound | anti-inflammatory activity [1] | anti-inflammatory action compared to katsuobushi extract [1] | also measured
1 | Nc1ncnc2c1ncn2[C@@H]1O[C@H](COP(=O)(O)O)[C@@H](O)[C@H]1O [AMP, adenosine 5′-monophosphate] | anti-inflammatory activity was observed |  | 
2 | Cn1cncc1C[C@H](NC(=O)CCN)C(=O)O [anserine] |  | none of these substances in isolation showed anti-inflammatory action comparable to katsuobushi extract | 
3 | C[N+](C)(C)CC(=O)O [betaine] |  | none of these substances in isolation showed anti-inflammatory action comparable to katsuobushi extract | 
4 | NCCC(=O)N[C@@H](Cc1cnc[nH]1)C(=O)O [carnosine] |  | none of these substances in isolation showed anti-inflammatory action comparable to katsuobushi extract | 
5 | CN(CC(=O)O)C(=N)N [creatine] |  | none of these substances in isolation showed anti-inflammatory action comparable to katsuobushi extract | 
6 | O=C(O)CO [glycolic acid] | showed anti-inflammatory activity |  | 
7 | N[C@@H](Cc1c[nH]cn1)C(=O)O [histidine] |  | none of these substances in isolation showed anti-inflammatory action comparable to katsuobushi extract | claudin-5 protein expression ([2]; added concentration 0.836 mg/ml, after 24 hours, compared to serum-free medium): elevated; expression of tight-junction-associated molecules (claudin-5 and occludin) at the genetic level and the protein level ([2]; rat cerebrovascular endothelial cells): elevated expression
8 | O=c1[nH]cnc2nc[nH]c12 [hypoxanthine] | anti-inflammatory activity was observed |  | 
9 | CC(O)C(=O)O (centres unmarked) [lactic acid] | showed anti-inflammatory activity |  | anti-inflammatory activity (literature) [3]: already been reported to have anti-inflammatory activity
10 | O=C[C@H](O)[C@H](O)[C@H](O)COP(=O)(O)O [ribose 5-phosphate] | anti-inflammatory activity was observed |  | 
11 | O=C(O)CCC(=O)O [succinic acid] | anti-inflammatory activity was observed |  | 
